Values quoted from earlier work, collected in patent US20070053892A1, “Methods and kits for co-administration of nutritional supplements” (Everett Laboratories, Inc., priority 2005, published 2007).

Tests used:
[1] = patients with ischemic heart disease
[2] = patients with cardiomyopathy
[3] = patients with hypertension
[4] = patients with congestive heart failure

COC1=C(OC)C(=O)C(C/C=C(\C)CC/C=C(\C)CC/C=C(\C)CC/C=C(\C)CC/C=C(\C)CC/C=C(\C)CC/C=C(\C)CC/C=C(\C)CC/C=C(\C)CCC=C(C)C)=C(C)C1=O [CoQ10, coenzyme Q10]
magnitude and rate of clinical improvement [1]: enhances both the magnitude and rate of clinical improvement
cardiac function including ejection fraction and cardiac output [2]: significant improvement in cardiac function
blood pressure [3]: significantly reduce blood pressure
myocardial metabolic function, blood pressure, myocardial thickness [4]: improve myocardial metabolic function, reduce blood pressure, and reduce myocardial thickness
